Results as given in patent US20070049564A1 (Wyeth, priority 2005, published 2007).
In brackets after ≈: the same amount, converted by molar mass. Where two headings read alike, the source gives them in different places.

How the values were obtained:
S. pneumoniae+ GC 4465 = experiment: MIC, broth microdilution; details: Streptococcus pneumoniae, S. pneumoniae+ GC 4465
E. coli GC 2231 = experiment: MIC, broth microdilution; details: Escherichia coli, GC2231, E. coli GC 2231
S. epidermidis GC 4935 = experiment: MIC, broth microdilution; details: Staphylococcus epidermidis, GC4935, S. epidermidis GC 4935
S. aureus GC 1131 = experiment: MIC, broth microdilution; details: Staphylococcus aureus, GC1131, S. aureus GC 1131
S. typhimurium GC 2172 = experiment: MIC, broth microdilution; details: Salmonella enterica, TYPHIMURIUM, S. typhimurium GC 2172
Experimental: (§1) Antimicrobial susceptibility testing. The in vitro activities of the antibiotics are determined by the broth microdilution method as recommended by the National Committee for Clinical Laboratory Standards (NCCLS) (1). Mueller-Hinton II broth (MHBII)(BBL Cockeysville, Md.) is the medium employed in the testing procedures. Microtiter plates containing serial dilutions of each antimicrobial agent are inoculated with each organism to yield the appropriate density (10^5 CFU/ml) in a 100 μl final volume. The plates are incubated for 18-22 hours at 35° C. in ambient air.
Representative compounds were first incubated in mouse serum for an hour prior to the in vitro testing against a panel of selected gram-positive and gram-negative bacteria strains. All compounds were also pre-incubated in water for an hour prior to testing as control.

E. coli GC 3226 = experiment: MIC, broth microdilution; details: Escherichia coli, GC3226, E. coli GC 3226
E. coli GC 2272 = experiment: MIC, broth microdilution; details: Escherichia coli, GC2272, E. coli GC 2272
E. faecalis GC 2267 = experiment: MIC, broth microdilution; details: Enterococcus faecalis, GC2267, E. faecalis GC 2267
Staph. aureus Smith = experiment: In vivo activity (oral, iv; ED50) against Staph. aureus Smith in mice
Experimental: Representative examples of compounds of Formula I were tested for the oral efficacy using S. aureus Smith in mice.

E. faecium GC 4556 = experiment: MIC, broth microdilution; details: Enterococcus faecium, GC4556, E. faecium GC 4556
Experimental: as §1
(§2) Representative compounds were first incubated in mouse serum for an hour prior to the in vitro testing against a panel of selected gram-positive and gram-negative bacteria strains. All compounds were also pre-incubated in water for an hour prior to testing as control. Representative compounds of Formula I were incubated in human serum prior to MIC determination.

S. pneumoniae* GC 4465 = experiment: MIC, broth microdilution; details: Streptococcus pneumoniae, S. pneumoniae* GC 4465
S. aureus GC 1079 = experiment: MIC, broth microdilution; details: Staphylococcus aureus, GC1079, S. aureus GC 1079
E. coli GC 2232 = experiment: MIC, broth microdilution; details: Escherichia coli, GC2232, E. coli GC 2232
S. pyogenes GC 4563 = experiment: MIC, broth microdilution; details: Streptococcus pyogenes, GC4563, S. pyogenes GC 4563
c. albicans GC 3066 = experiment: MIC, broth microdilution
S. aureus GC 6466 = experiment: MIC, broth microdilution; details: Staphylococcus aureus, GC6466, S. aureus GC 6466
S. aureus GC 2216 = experiment: MIC, broth microdilution; details: Staphylococcus aureus, GC2216, S. aureus GC 2216
E. coli GC 2234 = experiment: MIC, broth microdilution; details: Escherichia coli, GC2234, E. coli GC 2234
E. faecium GC 2243 = experiment: MIC, broth microdilution; details: Enterococcus faecium, GC2243, E. faecium GC 2243
S. aureus GC 6335 = experiment: MIC, broth microdilution; details: Staphylococcus aureus, GC6335, S. aureus GC 6335
Experimental: as §1, §2

[1] = c. albicans GC 3066, Water pre-incubation

SMILES	MIC (S. pneumoniae+ GC 4465; Mouse Serum pre-incubation) [µg/mL]	MIC (S. pneumoniae+ GC 4465; Water pre-incubation) [µg/mL]	MIC (E. coli GC 2231; Mouse Serum pre-incubation) [µg/mL]	MIC (E. coli GC 2231; Water pre-incubation) [µg/mL]	MIC (S. epidermidis GC 4935; Mouse Serum pre-incubation) [µg/mL]	MIC (S. epidermidis GC 4935; Water pre-incubation) [µg/mL]	MIC (S. aureus GC 1131; Mouse Serum pre-incubation) [µg/mL]	MIC (S. aureus GC 1131; Water pre-incubation) [µg/mL]	MIC (S. typhimurium GC 2172; Mouse Serum pre-incubation) [µg/mL]	MIC (S. typhimurium GC 2172; Water pre-incubation) [µg/mL]	MIC (E. coli GC 3226; Mouse Serum pre-incubation) [µg/mL]	MIC (E. coli GC 3226; Water pre-incubation) [µg/mL]	MIC (E. coli GC 2272; Mouse Serum pre-incubation) [µg/mL]	MIC (E. coli GC 2272; Water pre-incubation) [µg/mL]	MIC (E. faecalis GC 2267; Mouse Serum pre-incubation) [µg/mL]	MIC (E. faecalis GC 2267; Water pre-incubation) [µg/mL]	MIC (E. faecium GC 4556; Mouse Serum pre-incubation) [µg/mL]	MIC (E. faecium GC 4556; Water pre-incubation) [µg/mL]	MIC (S. pneumoniae* GC 4465; Mouse Serum pre-incubation) [µg/mL]	MIC (S. pneumoniae* GC 4465; Water pre-incubation) [µg/mL]	other results
CCCCN(CC(=O)Nc1cc(N(C)C)c2c(c1O)C(=O)C1=C(O)[C@]3(O)C(=O)C(C(N)=O)=C(O)[C@@H](N(C)C)C3CC1C2)C(=O)OCOC(=O)C(C)C (stereo partly drawn) [Example 1, ({[(2-{[(7S,10aS)-9-(aminocarbonyl)-4,7-bis(dimethylamino)-1,8,10a,11-tetrahydroxy-10,12-dioxo-5,5a,6,6a,7,10,10a,12-octahydrotetracen-2-yl]amino}-2-oxoethyl)(butyl)amino]carbonyl}oxy)methyl 2-methylpropanoate]	2 (≈ 2.74 µM)	2 (≈ 2.74 µM)	1 (≈ 1.37 µM)	64 (≈ 87.7 µM)	2 (≈ 2.74 µM)	8 (≈ 11 µM)	1 (≈ 1.37 µM)	4 (≈ 5.48 µM)	4 (≈ 5.48 µM)	> 64	1 (≈ 1.37 µM)	32 (≈ 43.8 µM)	1 (≈ 1.37 µM)	16 (≈ 21.9 µM)	2 (≈ 2.74 µM)	8 (≈ 11 µM)	1 (≈ 1.37 µM)	4 (≈ 5.48 µM)	0.5 (≈ 0.685 µM)	0.25 (≈ 0.343 µM)	ED50 (Staph. aureus Smith; Staphylococcus aureus, in Mus musculus, iv, read-out: ED50 SIV (Staph aureus Smith)): 0.6 mg/kg; ED50 (Staph. aureus Smith; Staphylococcus aureus, in Mus musculus, po, read-out: ED50 SOD (Staph aureus Smith)): 4.7 mg/kg; MIC (S. aureus GC 1079; Mouse Serum pre-incubation): 2 µg/mL (≈ 2.74 µM); MIC (S. aureus GC 1079; Water pre-incubation): 4 µg/mL (≈ 5.48 µM); MIC (E. coli GC 2232; Mouse Serum pre-incubation): 0.5 µg/mL (≈ 0.685 µM); MIC (E. coli GC 2232; Water pre-incubation): 16 µg/mL (≈ 21.9 µM); MIC (S. pyogenes GC 4563; Mouse Serum pre-incubation): 0.25 µg/mL (≈ 0.343 µM); MIC (S. pyogenes GC 4563; Water pre-incubation): 0.5 µg/mL (≈ 0.685 µM); MIC (c. albicans GC 3066; Candida albicans, GC3066): > 64 µg/mL; MIC (c. albicans GC 3066; [1]): >64 UG/ML; MIC (S. aureus GC 6466; Mouse Serum pre-incubation): 1 µg/mL (≈ 1.37 µM); MIC (S. aureus GC 6466; Water pre-incubation): 1 µg/mL (≈ 1.37 µM); MIC (S. aureus GC 2216; Mouse Serum pre-incubation): 1 µg/mL (≈ 1.37 µM); MIC (S. aureus GC 2216; Water pre-incubation): 4 µg/mL (≈ 5.48 µM); MIC (E. coli GC 2234; Mouse Serum pre-incubation): 0.5 µg/mL (≈ 0.685 µM); MIC (E. coli GC 2234; Water pre-incubation): 16 µg/mL (≈ 21.9 µM); MIC (E. faecium GC 2243; Mouse Serum pre-incubation): 1 µg/mL (≈ 1.37 µM); MIC (E. faecium GC 2243; Water pre-incubation): 2 µg/mL (≈ 2.74 µM); MIC (S. aureus GC 6335; Mouse Serum pre-incubation): 2 µg/mL (≈ 2.74 µM); MIC (S. aureus GC 6335; Water pre-incubation): 4 µg/mL (≈ 5.48 µM)
CCCCN(CC(=O)Nc1cc(N(C)C)c2c(c1O)C(=O)C1=C(O)[C@]3(O)C(=O)C(C(N)=O)=C(O)[C@@H](N(C)C)C3CC1C2)C(=O)OCOC(=O)c1ccc(OC)cc1 (stereo partly drawn) [Example 2, ({[(2-{[(7S,10aS)-9-(aminocarbonyl)-4,7-bis(dimethylamino)-1,8,10a,11-tetrahydroxy-10,12-dioxo-5,5a,6,6a,7,10,10a,12-octahydrotetracen-2-yl]amino}-2-oxoethyl)(butyl)amino]carbonyl}oxy)methyl 4-methoxybenzoate]	2 (≈ 2.52 µM)	4 (≈ 5.04 µM)	4 (≈ 5.04 µM)	64 (≈ 80.6 µM)	8 (≈ 10.1 µM)	8 (≈ 10.1 µM)	2 (≈ 2.52 µM)	4 (≈ 5.04 µM)	> 64	> 64	4 (≈ 5.04 µM)	64 (≈ 80.6 µM)	1 (≈ 1.26 µM)	64 (≈ 80.6 µM)	4 (≈ 5.04 µM)	4 (≈ 5.04 µM)	4 (≈ 5.04 µM)	8 (≈ 10.1 µM)	0.5 (≈ 0.63 µM)	0.25 (≈ 0.315 µM)	ED50 (Staph. aureus Smith; Staphylococcus aureus, in Mus musculus, po, read-out: ED50 Staph Smith SOD): 13.3 mg/kg; ED50 (Staph. aureus Smith; iv, read-out: ED50 Staph Smith SIV): 0.71 mg/kg; MIC (S. aureus GC 1079; Mouse Serum pre-incubation): 8 µg/mL (≈ 10.1 µM); MIC (S. aureus GC 1079; Water pre-incubation): 8 µg/mL (≈ 10.1 µM); MIC (E. coli GC 2232; Mouse Serum pre-incubation): 2 µg/mL (≈ 2.52 µM); MIC (E. coli GC 2232; Water pre-incubation): 64 µg/mL (≈ 80.6 µM); MIC (S. pyogenes GC 4563; Mouse Serum pre-incubation): 0.25 µg/mL (≈ 0.315 µM); MIC (S. pyogenes GC 4563; Water pre-incubation): 0.25 µg/mL (≈ 0.315 µM); MIC (c. albicans GC 3066; Candida albicans, GC3066): > 64 µg/mL; MIC (c. albicans GC 3066; [1]): >64 UG/ML; MIC (S. aureus GC 6466; Mouse Serum pre-incubation): 1 µg/mL (≈ 1.26 µM); MIC (S. aureus GC 6466; Water pre-incubation): 2 µg/mL (≈ 2.52 µM); MIC (S. aureus GC 2216; Mouse Serum pre-incubation): 2 µg/mL (≈ 2.52 µM); MIC (S. aureus GC 2216; Water pre-incubation): 4 µg/mL (≈ 5.04 µM); MIC (E. coli GC 2234; Mouse Serum pre-incubation): 1 µg/mL (≈ 1.26 µM); MIC (E. coli GC 2234; Water pre-incubation): 64 µg/mL (≈ 80.6 µM); MIC (E. faecium GC 2243; Mouse Serum pre-incubation): 1 µg/mL (≈ 1.26 µM); MIC (E. faecium GC 2243; Water pre-incubation): 4 µg/mL (≈ 5.04 µM); MIC (S. aureus GC 6335; Mouse Serum pre-incubation): 8 µg/mL (≈ 10.1 µM); MIC (S. aureus GC 6335; Water pre-incubation): 8 µg/mL (≈ 10.1 µM)
